Measurements taken from patent publication US20250043290A1, “RNA SEQUENCES THAT INDUCE FLUORESCENCE OF SMALL MOLECULE FLUOROPHORES, MOLECULAR COMPLEXES, SENSORS, AND METHODS OF USE THEREOF” (CORNELL UNIVERSITY, priority 2021, published 2025).
Like-named read-outs stand apart in the source and are kept apart here. Marks after values point to notes of the source that are not given here.

How the values were obtained:
[1] = Photophysical properties of fluorophores and RNA-fluorophore complexes (Squash study); type: physicochemical
Method: All RNAs used for in vitro studies (except the initial hits from SELEX and the DE2-6 mutants) were purified using 8% denaturing PAGE (7M urea) and eluted in 0.3 M NaOAc (pH 5.2) overnight. The RNA was ethanol precipitated and quantified using absorbance in a NanoDrop 2000 spectrometer. All in vitro RNA properties were measured in 40 mM HEPES-KOH (pH 7.4), 100 mM KCl, 0.5 mM MgCl2 buffer unless specified.
Absorption, excitation, and emission spectra were measured using conditions where the RNA is in excess and the fluorophore is limiting to ensure that no free fluorophore contributes to the absorbance or fluorescence signal (FIGS. 7A-7D).
All quantum yields were determined by comparing each RNA-fluorophore complex with Broccli-DFHBI-1T or Corn-DFHO. All measurements for quantum yield were taken in the presence of excess RNA (10 μM final) compared to the fluorophores (0.2 μM final) to avoid interference from unbound fluorophore. The integral of the emission spectra for each Squash-fluorophore complex was compared with the corresponding integrals for Broccoli or Corn to calculate the quantum yield.

[2] = data from Song et al., cited from earlier work
[3] = Fluorescence activation of DFHBI-1T by aptamers in vitro; type: biochemical
Text: FIG. 1A is a schematic illustrating the strategy for evolution of the add A-riboswitch aptamer. Indicated are helices P1-P3, junctional strands (J1/2, J2/3, J3/1), kissing loop (gray lines), and adenine interactions with the aptamer (dotted line) (5′-CUUCAUAUAAUCCUAAUGAUAUGGUUUGGGAGUUUCUACCAAGAGCCUUAAACUCUUGAUUAUGAAG-3′ (SEQ ID NO:36)). The chemical structure of adenine and fluorophores are shown. Three regions (Region 1: 5′-UAU AAU-3′ (SEQ ID NO:37)), Region 2: 5′-AGU UUC UAC C-3′ (SEQ ID NO:38); Region 3: 5′-GAU UAU-3′ SEQ ID NO:39), which include J1/2, J2/3, and J3/1 were randomized in both size and sequence resulting in a sprouts/clips library for SELEX. Each nucleotide in the colored regions was replaced using a combination of random stochastic deletion (designated “N”) and random stochastic insertion (designated “n”). FIG. 1B is schematic showing a three dimensional structure of the add A-riboswitch aptamer highlighting the adenine-binding pocket (PDB 1Y26). The mutagenized regions are shown in the same color as FIG. 1A. Adenine is indicated by the arrow. FIG. 1C is a schematic illustrating the evolution of the add A-riboswitch aptamer into Squash, a DFHBI-1T-binding aptamer. The sprouts/clips library was selected for binding to DFHBI-conjugated agarose resulting in aptamer 9-1. Aptamer 9-1 was subjected to two consecutive rounds of directed evolution generating DE2-6. A pair of mutations was introduced in DE2-6 to strengthen the kissing loop interaction resulting in Squash. FIG. 1D is a graph showing fluorescence activation of DFHBI-1T by different aptamer intermediates that led to Squash. The values inside the bars indicate fold-activation of DFHBI-1T fluorescence by the corresponding aptamer. Data represent mean values±s.d. for n=3 independent experiments. […]
(§1) FIG. 6A is a bar graph showing fluorescence activation of DFHO by Squash and its precursors. Fluorescence was measured with 200 nM dye and 10 μM RNA (ex: 495 nm, em: 562 nm, except for Corn; ex: 505 nm, em: 545 nm). […] FIG. 6B is a bar graph showing fluorescence of initial hits after Round 7 of SELEX. In vitro transcribed RNAs from each hit (1 μM final) were mixed with DFHBI-1T (10 μM final) and the fluorescence was measured (ex: 452 nm, em: 503 nm, except for Broccoli; ex: 472 nm, em: 507 nm). […] FIGS. 6C-6D are bar graphs showing fluorescence measurements of the hits with DFHBI-1T after first (FIG. 6C) and second (FIG. 6D) round of directed evolution, measured as in FIG. 6B. […] FIG. 6E is a bar graph showing fluorescence measurements of hits using DFHO after the second round of directed evolution measured as in FIG. 6A. The fluorescence of the hits were normalized against Corn. […] FIG. 6F is a graph showing normalized fluorescence. […] Fluorescence was measured as in FIG. 6A. […]

[4] = Fluorescence activation of DFHO by aptamers in vitro; type: biochemical
Text: FIG. 2A is a schematic showing the secondary structure of Squash as predicted by mFOLD (Squash: 5′-GGCUACAAGGUGAGCCCAAUAAUACGGUUUGGGUUAGGAUAGGAAGUAGAGCCGUAAACUCUCUAAGCGGUAGUC-3′ (SEQ ID NO:1)). Squash retained the main structural elements of add A-riboswitch aptamer including a 3-way junction and predicted kissing loop interactions (residues at positions 30, 31, 56, and 57, solid gray line). An additional base pair in the kissing loop between loop L2 and L3 (residues at positions 29 and 58, dotted gray line) improved fluorescence activation. […] Shown are the excitation (Ex) and emission (Em) spectra of Squash bound to DFHBI-1T and DFHO (structures shown in inset). Spectra were measured using 20 μM RNA and 2 μM of the indicated fluorogenic dye. […] Fluorescence activation was measured by incubating 200 nM dye and 10 μM RNA. By using a large excess of RNA compared to the fluorophore, it was ensured that the fluorescence observed is from 200 nM RNA-fluorophore complex. Data represent mean values±s.d. for n=3 independent experiments. The values inside the bars indicate fold activation. AU, arbitrary units. FIG. 2D is a graph showing the dissociation constant (Kd) between Squash and DFHO as measured by titration of 50 nM Squash with increasing concentration of DFHO, and fitted using a one-site saturation model. […] FIG. 2E is a bar graph showing the results of an experiment in which Squash-DFHO fluorescence was measured in buffers containing exclusively the indicated cations. […] Similar to the parental add A-riboswitch aptamer (see Lemay et al., “Folding of the Adenine Riboswitch,” Chem. Biol. 13:857-868 (2006), which is hereby incorporated by reference in its entirety), Squash-DFHO has a low magnesium requirement for fluorescence activation. […]
as §1

[5] = Fluorescence activation of DFAME by aptamers in vitro; type: biochemical; conditions: in vitro
Method: To test whether Beetroot can activate DFHO, the fluorescence emission spectrum of the Beetroot-DFHO complex was measured. In brief, 20 μM Beetroot and 2 μM DFHO were mixed, and the fluorescence emission of the Beetroot-DFHO complex was measured. […] To test whether Beetroot can activate DFHBI-1T, the fluorescence emission spectrum of the Beetroot-DFHBI-1T complex was measured using the same protocol described in FIG. 32A. […] To test whether Beetroot can activate BI, the fluorescence emission spectrum of the Beetroot-BI complex was measured using the same protocol described in FIG. 32A. […] To test whether Corn can activate DFAME, the fluorescence emission spectrum of the Corn-DFAME complex was measured using the same protocol described in FIG. 32A.
The eluted RNAs were then ethanol precipitated, reverse transcribed, PCR amplified and in vitro transcribed to yield the pool for the next SELEX round. The presence of fluorescent RNA species in each pool was assessed by mixing 20 μM RNA and 10 μM DFAME and measuring fluorescence emission of this solution on a fluorometer in comparison with the fluorophore alone. At this point, RNAs were cloned into bacterial expression plasmids for FACS-based screening.
dsDNA encoding the top-performing RNA sequences from the brightest bacterial colonies was PCR amplified from the purified plasmids. […] The resulting RNA was then purified using Zymo RNA concentrator columns and quantified by absorbance using a Thermo Scientific NanoDrop 2000 spectrophotometer. For absorption, excitation and emission spectra measurements, “excess RNA” conditions and limiting amount of fluorophore was used to ensure that no free fluorophore contributes to the absorbance or fluorescence signal. The RNA concentration used for fluorescence and absorbance measurements was 20 μM and 50 μM, respectively, while the dye concentration was 2 μM and 5 μM, respectively. All in vitro RNA properties were measured in 40 mM HEPES pH 7.4, 100 mM KCl, 5 mM MgCl2 buffer, unless specified.

[6] = 40 mM HEPES-KOH (pH 7.4), 100 mM KCl, 0.5 mM MgCl2

Q: Which Emission maximum [1, 6] does the source give for `CN1C(=O)/C(=C/c2cc(F)c(O)c(F)c2)N=C1/C=N/O` [DFHO, 4-(3,5-difluoro-4-hydroxybenzylidene)-1-methyl-5-oxo-4,5-dihydro-1H-imidazole-2-carbaldehyde oxime] here?
A: 561 nm

Q: And the Excitation maximum [1, 6]?
A: 473 nm

Q: And the Fluorescence quantum yield ([1]; compared with Broccoli-DFHBI-1T or Corn-DFHO)?
A: 0.0006

Q: And the Extinction coefficient ([1]; free DFHO, at 495 nm)?
A: 27,000** M^−1cm^−1

Q: And the “Brightness (extinction coefficient × quantum yield)” value ([1]; relative to Corn)?
A: 0.22

Q: And the Extinction coefficient ([2]; DFHO alone, at 505 nm, pH 7.4 buffer)?
A: 19,800 M^−1cm^−1

Q: What about the Emission maximum [2] of the same molecule?
A: 561 nm

Q: What about the Excitation maximum [2] of the same molecule?
A: 473 nm

Q: And the Fluorescence quantum yield [2]?
A: 0.0006

Q: And the “Brightness (extinction coefficient × quantum yield)” value ([2]; relative to Corn-DFHO)?
A: 0.16

B1: DE1-2: brightest aptamer of first directed evolution, SEQ ID NO: 10 (nucleic acid)
chain: GCCUAGGCUUCAAGGUGAGCCCAAUAAUAUGGUUUGGGUUAGGAUAGGAAGAAGAGCCUUAAACUCUCUAAGCGGAAGUCUAGGC
modifications: listed as RNA, chemistry not given here
Q: For B1, which “Fold activation of DFHBI-1T fluorescence” value [3] is on record?
A: approximately 790 fold

B2: DE2-6: aptamer of second directed evolution, SEQ ID NO: 11 (nucleic acid)
chain: GCCUAGGCUACAAGGUGAGCCCAAUAAUAUGGUUUGGGUUAGGAUAGGAAGUAGAGCCUUAAACUCUCUAAGCGGUAGUCUAGGC
modifications: listed as RNA, chemistry not given here
Q: For B2, which “Fold activation of DFHBI-1T fluorescence” value [3] is on record?
A: approximately 949 fold

Q: And the “Fold activation of DFHO fluorescence” value [4]?
A: ~492 fold

B3: 10-1: RNA aptamer from 10 rounds of SELEX that binds DFAME, SEQ ID NO: 95 (nucleic acid)
chain: GCUUCCGUGCGACAUCAUGCGCGCGACUGCUUCGGCAGAGGUGGGUGGUGUGGAGGAGUAUCUG
modifications: RNA, backbone not given here
Q: For B3, which “Fold fluorescence enhancement of DFAME” value [5] is on record?
A: threefold

B4: 9-1: initial SELEX hit from sprouts/clips library, SEQ ID NO: 9 (nucleic acid)
chain: GCCUAGGCUUCAAGGUGGCCCAAUGAUAUGGUUUGGGUUAGGAUAGGAAUAAGAGCCUUAAACUCUUCAAAGCGGAAGUCUAGGC
modifications: listed as RNA, chemistry not given here
Q: Which “Fold activation of DFHBI-1T fluorescence” value [3] does the source give for B4 here?
A: ~521 fold
